Experimental data as given in publication PMC10122661 (2023).

Assays:
[1] = tested on: riboSAM (full-length SAM-VI riboswitch, 95 nt) (RNA, riboswitch) GGGAAGAAAUAACAAUCAACGACGUAUCAUUGUGCCUCGCUUUCCGCGGGGCGAUAAGUCCUGAAGAAAGGGAUGAUAUGACAUAAGAACAUCGG …; assay: ITC; settings: 100 mM KCl, 10 mM MgCl2; 40 mM HEPES, pH 7.5, room temperature; 45 μM RNA
[2] = tested on: 15N-16U24G-riboSAM (RNA, riboswitch) GGGAAGAAAUAACAAUCAACGACGUAUCAUUGUGCCUCGCUUUCCGCGGGGCGAUAAGUCCUGAAGAAAGGGAUGAUAUGACAUAAGAACAUCGG; assay: 1H15N-HSQC NMR; settings: 25 mM K2HPO4, 50 mM KCl, 2 mM MgCl2; pH 6.5, 25 or 37 °C; 0.5 mM RNA, 0.5 mM SAM
[3] = tested on: 15N-16U24G-riboSAM hybridized with 21 nt-DNA (DNA:RNA, riboswitch) GGGAAGAAAUAACAAUCAACGACGUAUCAUUGUGCCUCGCUUUCCGCGGGGCGAUAAGUCCUGAAGAAAGGGAUGAUAUGACAUAAGAACAUCGG/CCGATGTTCTTATGTCATATC; assay: 1H15N-HSQC NMR; settings: 25 mM K2HPO4, 50 mM KCl, 2 mM MgCl2; pH 6.5; 0.5 mM SAM, 0.5 mM RNA; 3' end blocked by 21-nt DNA
[4] = tested on: 15N-25U32G-riboSAM hybridized with 19 nt-DNA (DNA:RNA, riboswitch) GGGAAGAAAUAACAAUCAACGACGUAUCAUUGUGCCUCGCUUUCCGCGGGGCGAUAAGUCCUGAAGAAAGGGAUGAUAUGACAUAAGAACAUCGG/CCGATGTTCTTATGTCATA; assay: 1H15N-HSQC NMR; settings: 25 mM K2HPO4, 50 mM KCl, 2 mM MgCl2; pH 6.5; 3' end blocked by 19-nt DNA
[5] = tested on: 2AP-riboSAM (RNA, riboswitch, 2-aminopurine at 59 (replaces U59)) GGGAAGAAAUAACAAUCAACGACGUAUCAUUGUGCCUCGCUUUCCGCGGGGCGAUAAGACCUGAAGAAAGGGAUGAUAUGACAUAAGAACAUCGG; assay: stopped-flow 2AP fluorescence; settings: 100 mM KCl, 2 mM MgCl2; 10 mM HEPES, pH 7.5, room temperature; 0.5 μM RNA
[6] = tested on: 2AP-mutant (riboSAM mutant, P0 helix disrupted) (RNA, riboswitch, 2-aminopurine at 59 (replaces U59)) GGGAAGAAAUAUGCCUCAACGACGUAUCAUUGUGCCUCGCUUUCCGCGGGGCGAUAAGACCUGAAGAAAGGGAUGAUAUGACAUAAGAACAUCGG; assay: stopped-flow 2AP fluorescence; settings: 100 mM KCl, 2 mM MgCl2; 10 mM HEPES, pH 7.5, room temperature; 0.5 μM RNA
[7] = tested on: 2AP-riboSAM (RNA, riboswitch, 2-aminopurine at 59 (replaces U59)) GGGAAGAAAUAACAAUCAACGACGUAUCAUUGUGCCUCGCUUUCCGCGGGGCGAUAAGACCUGAAGAAAGGGAUGAUAUGACAUAAGAACAUCGG; assay: steady-state 2AP fluorescence titration; settings: 100 mM KCl, 2 mM MgCl2; 10 mM HEPES, pH 7.5, room temperature; 0.5 μM RNA; apparent
[8] = tested on: 2AP-mutant (riboSAM mutant, P0 helix disrupted) (RNA, riboswitch, 2-aminopurine at 59 (replaces U59)) GGGAAGAAAUAUGCCUCAACGACGUAUCAUUGUGCCUCGCUUUCCGCGGGGCGAUAAGACCUGAAGAAAGGGAUGAUAUGACAUAAGAACAUCGG; assay: steady-state 2AP fluorescence titration; settings: 100 mM KCl, 2 mM MgCl2; 10 mM HEPES, pH 7.5, room temperature; 0.5 μM RNA; apparent

## C[S+](CC[C@H](N)C(=O)O)C[C@H]1O[C@@H](n2cnc3c(N)ncnc32)[C@H](O)[C@@H]1O (some centres unmarked)
[1]
  Kd: 1.03 ± 0.23 µM
[2]
  binding: yes
[3]
  binding: no
[4]
  binding: yes
[5]
  Kon: 5690 ± 83 M⁻¹ s⁻¹
[6]
  Kon: 4480 ± 51 M⁻¹ s⁻¹
[7]
  Kd: 9.650 ± 0.065 µM
[8]
  Kd: ~ 11.861 ± 0.341 μM
